# Assay results from patent publication US8916551B2, “Heterocyclic compound and use thereof” (Takeda Pharmaceutical Company Limited, priority 2010, dated 2014).
# Biological target: T1, AMPA receptor (human GluR1 flip/stargazin expressed in CHO-K1 cells) (Homo sapiens, UniProt P42261)
# T1 construct: expressed in transfected cells; host or cells: CHO-K1
# Experiment: AMPA receptor function enhancing activity using calcium influx as index
# Format: cell-based
# Settings: test compound 30 μM with glutamic acid final 3 mM, change in fluorescence in 3 min, 100% = 3 mM glutamic acid + 300 μM cyclothiazide, 0% = 3 mM glutamic acid only
# Text: Human GluR1 flip cDNA was amplified by PCR using forward primer […] (SEQ ID NO: 1) and reverse primer […] (SEQ ID NO: 2) artificially synthesized using human brain-derived cDNA (BD Bio science) as a template. The amplified product was digested with restriction enzymes EcoRI, NotI (TAKARA SHUZO CO. LTD.), and incorporated into the same site of pcDNA3.1(+) (Invitrogen) to construct pcDNA3.1(+)/human GluR1 flip gene. Human stargazin cDNA was amplified by PCR using forward primer […] (SEQ ID NO: 3) and reverse primer […] (SEQ ID NO: 4) artificially synthesized using human hippocampus cDNA as a template. The amplified product was digested with restriction enzymes XhoI, BamHI (TAKARA SHUZO CO. LTD.), and incorporated into the same site of pcDNA3.1(−) (Invitrogen) to construct pcDNA3.1 Zeo(−)/human stargazin gene.
# CHO-K1 cells passaged in a culture medium (Ham's F12 medium (Invitrogen) added with 10% inactivated fetal bovine serum (Morgate) and penicillin, streptomycin (Invitrogen)) were detached with 0.05% trypsin, 0.53 mM EDTA (Invitrogen) diluted with D-PBS(−). The detached cells were suspended in a culture medium, and recovered by a centrifugation operation at 1,000 rpm. The recovered cells were suspended again in D-PBS(−), and added to a 0.4 cm electroporation cuvette (BioRad). pcDNA3.1(+)/human GluR1 flip gene (5 μg) and pcDNA3.1 Zeo(−)/human stargazin gene (15 μg) were added, and the mixture was introduced into CHO-K1 cells using Gene Pulser II (BioRad) under the conditions of 950 μFd, […]. The introduced cells were cultured overnight in a culture medium and, the next day, plated in a 96 well plate at 250 cells/well using a selection medium (culture medium added with Zeocin (Invitrogen) to 250 μg/mL). Clones showing drug resistance were selected, and GluR1 flip/stargazin expressing clones were selected by an assay method using calcium influx as an index as shown below.
# CHO-K1/GluR1 flip/stargazin expressing cells were plated on a 96 well black transparent bottom plate (Costar) at 2×10^4 cells/well, and cultured in a 37° C., CO2 incubator (SANYO Electric Co., Ltd.) for 2 days. The medium in the cell plate was removed, and assay buffer A (D-MEM (Invitrogen), 0.1% BSA (Serogical Protein), 20 mM HEPES (Invitrogen)) was added at 50 μL/well. A calcium indicator (Calcium 4 Assay Kit, Invitrogen) added with 2.5 mM probenecid (Invitrogen) was added at 50 μL/well and the well was left standing in 37° C., CO2 incubator for 1 hr. The cell plate was set in CellLux (PerkinElmer), a mixture (50 μL) of 9 mM glutamic acid diluted with assay buffer B (HBSS (Invitrogen), 0.1% BSA, 20 mM HEPES) (final concentration 3 mM) and a test compound (test compound concentration 30 μM) was added, and the amount of change in fluorescence level in 3 min was measured. In the definition here, the amount of change in fluorescence level of well added with glutamic acid at final concentration 3 mM and 300 μM cyclothiazide (TOCRIS) is 100%, the amount of change in fluorescence level of well added only with glutamic acid at final concentration 3 mM is 0%, and the compound activity was calculated according to the following formula. activity(%)=(X−C)/(T−C)×100 T: amount of change in fluorescence level of well added with glutamic acid at final concentration 3 mM and 300 μM cyclothiazide C: amount of change in fluorescence level of well added only with glutamic acid at final concentration 3 mM X: amount of change in fluorescence level of well added with test compound
# T1 sequence (P42261 19-906 isoform P42261-2 limits assumed): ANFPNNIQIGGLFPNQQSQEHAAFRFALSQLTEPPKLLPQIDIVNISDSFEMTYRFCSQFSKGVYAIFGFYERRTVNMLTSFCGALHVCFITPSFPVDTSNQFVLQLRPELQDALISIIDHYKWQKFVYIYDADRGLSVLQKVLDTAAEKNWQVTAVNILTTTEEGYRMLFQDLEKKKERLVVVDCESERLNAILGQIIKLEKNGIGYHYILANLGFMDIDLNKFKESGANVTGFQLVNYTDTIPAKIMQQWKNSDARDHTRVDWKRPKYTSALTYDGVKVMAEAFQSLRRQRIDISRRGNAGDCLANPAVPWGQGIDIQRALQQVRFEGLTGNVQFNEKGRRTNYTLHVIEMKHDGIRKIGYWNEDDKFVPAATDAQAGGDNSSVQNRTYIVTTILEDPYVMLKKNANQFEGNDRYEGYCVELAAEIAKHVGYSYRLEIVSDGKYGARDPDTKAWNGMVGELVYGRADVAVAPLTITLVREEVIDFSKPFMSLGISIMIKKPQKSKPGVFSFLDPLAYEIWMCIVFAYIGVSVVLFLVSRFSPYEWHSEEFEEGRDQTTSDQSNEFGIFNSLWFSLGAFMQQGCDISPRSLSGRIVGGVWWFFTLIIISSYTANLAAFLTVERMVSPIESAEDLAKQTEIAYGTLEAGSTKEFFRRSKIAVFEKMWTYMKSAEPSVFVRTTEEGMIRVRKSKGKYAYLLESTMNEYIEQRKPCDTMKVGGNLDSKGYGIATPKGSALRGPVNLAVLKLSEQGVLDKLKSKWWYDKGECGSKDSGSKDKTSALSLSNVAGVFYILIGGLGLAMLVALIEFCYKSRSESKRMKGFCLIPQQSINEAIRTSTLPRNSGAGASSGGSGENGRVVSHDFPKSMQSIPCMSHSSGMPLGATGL
# T1 sequence (Q9Y698 whole entry partner): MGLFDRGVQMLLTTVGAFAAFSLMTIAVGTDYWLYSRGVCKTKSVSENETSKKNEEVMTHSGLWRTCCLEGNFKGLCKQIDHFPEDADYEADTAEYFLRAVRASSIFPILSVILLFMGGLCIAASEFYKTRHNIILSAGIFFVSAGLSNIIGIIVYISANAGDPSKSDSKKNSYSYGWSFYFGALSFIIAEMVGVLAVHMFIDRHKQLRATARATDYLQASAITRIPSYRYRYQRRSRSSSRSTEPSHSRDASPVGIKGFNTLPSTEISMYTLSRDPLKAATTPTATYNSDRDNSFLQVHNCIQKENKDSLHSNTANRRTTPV
row,Compound,activity (%)
1,"CC1CC(c2ccc(Oc3ccccc3)cc2)C2=NS(=O)(=O)CCN2C1 (stereo not shown) [Example 99, 7-methyl-9-(4-phenoxyphenyl)-3,4,6,7,8,9-hexahydropyrido[2,1-c][1,2,4]thiadiazine 2,2-dioxide]",73
2,"Cc1cc(C2=CC=CN3CCS(=O)(=O)N=C23)ccc1-c1ccccc1 [Example 101, 9-(2-methylbiphenyl-4-yl)-3,4-dihydropyrido[2,1-c][1,2,4]thiadiazine 2,2-dioxide]",84
3,"Cc1cc(C2CCCN3CCS(=O)(=O)N=C23)ccc1-c1ccccc1 (stereo not shown) [Example 102, 9-(2-methylbiphenyl-4-yl)-3,4,6,7,8,9-hexahydropyrido[2,1-c][1,2,4]thiadiazine 2,2-dioxide]",71
4,"Cc1cc(C2CCCN3CCS(=O)(=O)N=C23)ccc1-c1ccccc1 (stereo not shown) [Example 103, 9-(2-methylbiphenyl-4-yl)-3,4,6,7,8,9-hexahydropyrido[2,1-c][1,2,4]thiadiazine 2,2-dioxide]",81
5,"Cc1ccc(-c2ccc(C3CCCN4CCS(=O)(=O)N=C34)cc2)cc1 (stereo not shown) [Example 105, 9-(4′-methylbiphenyl-4-yl)-3,4,6,7,8,9-hexahydropyrido[2,1-c][1,2,4]thiadiazine 2,2-dioxide]",87
6,"COc1cccc(-c2ccc(C3CCCN4CCS(=O)(=O)N=C34)cc2)c1 (stereo not shown) [Example 106, 9-(3′-methoxybiphenyl-4-yl)-3,4,6,7,8,9-hexahydropyrido[2,1-c][1,2,4]thiadiazine 2,2-dioxide]",98
7,"Cc1ccc(Oc2ccc(C3CCCN4CCS(=O)(=O)N=C34)cc2)cc1 (stereo not shown) [Example 108, 9-[4-(4-methylphenoxy)phenyl]-3,4,6,7,8,9-hexahydropyrido[2,1-c][1,2,4]thiadiazine 2,2-dioxide]",68
8,"Cc1ccc(Oc2ccc(C3CCCN4CCS(=O)(=O)N=C34)cc2)cc1 (stereo not shown) [Example 109, 9-[4-(4-methylphenoxy)phenyl]-3,4,6,7,8,9-hexahydropyrido[2,1-c][1,2,4]thiadiazine 2,2-dioxide]",88
9,"Cc1cc(Oc2ccc(C3=CC=CN4CCS(=O)(=O)N=C34)cc2)ccc1F [Example 111, 9-[4-(4-fluoro-3-methylphenoxy)phenyl]-3,4-dihydropyrido[2,1-c][1,2,4]thiadiazine 2,2-dioxide]",58
10,"Cc1cc(Oc2ccc(C3CCCN4CCS(=O)(=O)N=C34)cc2)ccc1F (stereo not shown) [Example 112, 9-[4-(4-fluoro-3-methylphenoxy)phenyl]-3,4,6,7,8,9-hexahydropyrido[2,1-c][1,2,4]thiadiazine 2,2-dioxide]",79
11,"Cc1cc(Oc2ccc(C3CCCN4CCS(=O)(=O)N=C34)cc2)ccc1F (stereo not shown) [Example 113, 9-[4-(4-fluoro-3-methylphenoxy)phenyl]-3,4,6,7,8,9-hexahydropyrido[2,1-c][1,2,4]thiadiazine 2,2-dioxide]",86
12,"Cc1ccccc1Oc1ccc(C2=CC=CN3CCS(=O)(=O)N=C23)cc1 [Example 115, 9-[4-(2-methylphenoxy)phenyl]-3,4-dihydropyrido[2,1-c][1,2,4]thiadiazine 2,2-dioxide]",80
13,"Cc1ccccc1Oc1ccc(C2CCCN3CCS(=O)(=O)N=C23)cc1 (stereo not shown) [Example 116, 9-[4-(2-methylphenoxy)phenyl]-3,4,6,7,8,9-hexahydropyrido[2,1-c][1,2,4]thiadiazine 2,2-dioxide]",69
14,"Cc1cccc(Oc2ccc(C3=CC=CN4CCS(=O)(=O)N=C34)cc2)c1 [Example 117, 9-[4-(3-methylphenoxy)phenyl]-3,4-dihydropyrido[2,1-c][1,2,4]thiadiazine 2,2-dioxide]",90
15,"Cc1cccc(Oc2ccc(C3CCCN4CCS(=O)(=O)N=C34)cc2)c1 (stereo not shown) [Example 118, 9-[4-(3-methylphenoxy)phenyl]-3,4,6,7,8,9-hexahydropyrido[2,1-c][1,2,4]thiadiazine 2,2-dioxide]",79
16,"Cc1cccc(Oc2ccc(C3CCCN4CCS(=O)(=O)N=C34)cc2)c1 (stereo not shown) [Example 119, 9-[4-(3-methylphenoxy)phenyl]-3,4,6,7,8,9-hexahydropyrido[2,1-c][1,2,4]thiadiazine 2,2-dioxide]",92
17,"Cc1cc(C(F)(F)F)ccc1Oc1ccc(C2=CC=CN3CCS(=O)(=O)N=C23)cc1 [Example 121, 9-{4-[2-methyl-4-(trifluoromethyl)phenoxy]phenyl}-3,4-dihydropyrido[2,1-c][1,2,4]thiadiazine 2,2-dioxide]",71
18,"Cc1cc(C(F)(F)F)ccc1Oc1ccc(C2CCCN3CCS(=O)(=O)N=C23)cc1 (stereo not shown) [Example 122, 9-{4-[2-methyl-4-(trifluoromethyl)phenoxy]phenyl}-3,4,6,7,8,9-hexahydropyrido[2,1-c][1,2,4]thiadiazine 2,2-dioxide]",58
19,"Cc1cc(C(F)(F)F)ccc1Oc1ccc(C2CCCN3CCS(=O)(=O)N=C23)cc1 (stereo not shown) [Example 123, 9-{4-[2-methyl-4-(trifluoromethyl)phenoxy]phenyl}-3,4,6,7,8,9-hexahydropyrido[2,1-c][1,2,4]thiadiazine 2,2-dioxide]",57
20,"COc1ccc2cc(C3=CC=CN4CCS(=O)(=O)N=C34)ccc2c1 [Example 126, 9-(6-methoxynaphthalen-2-yl)-3,4-dihydropyrido[2,1-c][1,2,4]thiadiazine 2,2-dioxide]",72
21,"COc1ccc2cc(C3CCCN4CCS(=O)(=O)N=C34)ccc2c1 (stereo not shown) [Example 127, 9-(6-methoxynaphthalen-2-yl)-3,4,6,7,8,9-hexahydropyrido[2,1-c][1,2,4]thiadiazine 2,2-dioxide]",79
22,"COc1ccc2cc(C3CCCN4CCS(=O)(=O)N=C34)ccc2c1 (stereo not shown) [Example 128, 9-(6-methoxynaphthalen-2-yl)-3,4,6,7,8,9-hexahydropyrido[2,1-c][1,2,4]thiadiazine 2,2-dioxide]",98
23,"COc1ccc2cc(C3CCCN4CCS(=O)(=O)N=C34)ccc2c1 (stereo not shown) [Example 129, 9-(6-methoxynaphthalen-2-yl)-3,4,6,7,8,9-hexahydropyrido[2,1-c][1,2,4]thiadiazine 2,2-dioxide]",100
24,"CCc1cccc(Oc2ccc(C3=CC=CN4CCS(=O)(=O)N=C34)cc2)c1 [Example 130, 9-[4-(3-ethylphenoxy)phenyl]-3,4-dihydropyrido[2,1-c][1,2,4]thiadiazine 2,2-dioxide]",69
25,"CCc1cccc(Oc2ccc(C3CCCN4CCS(=O)(=O)N=C34)cc2)c1 (stereo not shown) [Example 131, 9-[4-(3-ethylphenoxy)phenyl]-3,4,6,7,8,9-hexahydropyrido[2,1-c][1,2,4]thiadiazine 2,2-dioxide]",58
26,"CCc1cccc(Oc2ccc(C3CCCN4CCS(=O)(=O)N=C34)cc2)c1 (stereo not shown) [Example 132, 9-[4-(3-ethylphenoxy)phenyl]-3,4,6,7,8,9-hexahydropyrido[2,1-c][1,2,4]thiadiazine 2,2-dioxide]",75
27,"Cc1ccc(Oc2ccc(C3=CC=CN4CCS(=O)(=O)N=C34)cc2)cc1C [Example 134, 9-[4-(3,4-dimethylphenoxy)phenyl]-3,4-dihydropyrido[2,1-c][1,2,4]thiadiazine 2,2-dioxide]",77
28,"Cc1ccc(Oc2ccc(C3CCCN4CCS(=O)(=O)N=C34)cc2)cc1C (stereo not shown) [Example 135, 9-[4-(3,4-dimethylphenoxy)phenyl]-3,4,6,7,8,9-hexahydropyrido[2,1-c][1,2,4]thiadiazine 2,2-dioxide]",59
